Data taken from patent publication US20200060273A1, “FUNGICIDAL COMPOSITIONS” (Novus International, Inc., priority 2018, published 2020).
Like-named read-outs stand apart in the source and are kept apart here.

Tests used:
Botrytis cinerea = experiment: in vitro mycelial disc assay; assay type: cell-based
[1] = tested on: Podosphaera xanthii (powdery mildew); experiment: in vitro leaf disc assay on cucumber cotyledons; assay type: cell-based
Fusarium graminearum = assay type: cell-based
cucumber = conditions: in vivo
Description: (§1) These experiments were carried out to test the phytotoxic effects of HMTBA on cucurbit (cucumber), strawberry, pepper, and lettuce target crops. Young plants of Jackson Classic variety cucumber, Tango variety head lettuce, Compadre variety bell pepper, and Festival variety strawberry were grown under standard greenhouse conditions. One week-post planting cucumber and pepper plants, three week old lettuce, and four month old strawberry plants were treated.
(§2) Foliar sprays for HMTBA dilutions at 0.01, 0.1, 0.2 and 1.0% ai/v were applied twice per week for two weeks (total of four applications).
(§3) Height and width for each plant was measured (centimeters) for indication of growth changes between treated and untreated plants. Phytotoxicity ratings were taken weekly on a 0-10 scale, where 0 indicates no crop injury and 10 is damage (yellowing, scarring, wilting, necrosis, death) to the total plant from the treatment.
(§4) Area Under Disease Progress Curve (AUDPC), Abbot's formulation for percent control and all statistics were analyzed using ANOVA mean comparison with LSD test and a=0.05. Bartlett's test for homogeneity of variances was used to determine the need for data transformations. Letters in tables represent means separation significant and 0.05.

lettuce = conditions: in vivo
Description: as §1, §2, §3, §4

pepper = conditions: in vivo
Description: as §1, §2, §3, §4

strawberry = conditions: in vivo
Description: as §1, §2, §3, §4

## O=C1C2CC=CCC2C(=O)N1SC(Cl)(Cl)Cl (stereo not shown) [Captan, captan]
Botrytis cinerea; Captan 0.001% ai/v
  B. cinerea Mycelial Growth % Control: 21.05% cd
  B. cinerea Mycelial Growth Diameter (cm): 1.68 bc cm
Botrytis cinerea; Captan 0.01% ai/v
  B. cinerea Mycelial Growth % Control: 53.68% b
  B. cinerea Mycelial Growth Diameter (cm): 0.97 cm·days
Botrytis cinerea; Captan 1% ai/v
  B. cinerea Mycelial Growth % Control: 96.81% a
  B. cinerea Mycelial Growth Diameter (cm): 0.07 e cm

## CSCCC(O)C(=O)O (stereo not shown) [HMTBA, 2-hydroxy-4(methylthio)butanoic acid]
[1]; 0.1% HMTBA
  P. xanthii % Control: 4.46% ef
  Pest Severity Score 0-4: 3.17 a
Botrytis cinerea; 0.1% HMTBA
  B. cinerea Mycelial Growth % Control: 10.08% de
  B. cinerea Mycelial Growth Diameter (cm): 2.03 ab cm
Fusarium graminearum; 0.1% HMTBA
  F. graminiearum % Control: 4.93% ef
  Spore Diameter (cm): 1.47 a cm
cucumber
  phytotoxic effects: no phytotoxic effects were recorded
  plant growth (height and width): unchanged from the untreated check
lettuce
  phytotoxic effects: no phytotoxic effects were recorded
  plant growth (height and width): unchanged from the untreated check
pepper; Compadre variety, pepper
  Pepper Phytotoxicity Rating (0-10): 0.0 a
pepper
  phytotoxic effects: no phytotoxic effects were recorded
  plant growth (height and width): unchanged from the untreated check
strawberry; Festival variety, strawberry
  Strawberry Phytotoxicity Rating (0-10): 0.0 a
strawberry
  phytotoxic effects: no phytotoxic effects were recorded
  plant growth (height and width): unchanged from the untreated check

## CC1(C)CCC(Cc2ccc(Cl)cc2)C1(O)Cn1cncn1 (stereo not shown) [Metconazole, metconazole]
Fusarium graminearum; Metconazole 0.001% ai/v
  F. graminiearum % Control: 27.80% cde
  Spore Diameter (cm): 1.00 b cm
Fusarium graminearum; Metconazole 0.01% ai/v
  F. graminiearum % Control: 66.98% ab
  Spore Diameter (cm): 0.50 cd cm
Fusarium graminearum; Metconazole 1% ai/v
  F. graminiearum % Control: 93.08% a
  Spore Diameter (cm): 0.17 cm·days

## CO/C=C(/C(=O)OC)c1ccccc1Oc1cc(Oc2ccccc2C#N)ncn1 [Azoxystrobin, azoxystrobin]
[1]; Azoxystrobin 0.00001% ai/v
  P. xanthii % Control: 17.66% de
  Pest Severity Score 0-4: 2.67 ab
[1]; Azoxystrobin 0.0001% ai/v
  P. xanthii % Control: 44.23% c
  Pest Severity Score 0-4: 1.75 c
[1]; Azoxystrobin 0.1% ai/v
  P. xanthii % Control: 97.62% a
  Pest Severity Score 0-4: 0.08 e
